Patent publication US20250064057A1, “HARMFUL ALGAL BLOOM MITIGATION” (priority 2023, published 2025)

Assays:
[1] = test system: Karenia brevis; assay: K. brevis cell abundance reduction (% R relative to control) in laboratory beakers/aquaria; assay type: cell-based; conditions: for mean % R in K. brevis cell abundance: beginning at 4 h
[2] = test system: K. brevis; conditions: other studies; cited from earlier work

Row | Structure (SMILES) | mean % R in K. brevis cell abundance ([1]; 30 mg/L curcumin) [%] | mean % R in K. brevis cell abundance ([1]; 40 mg/L curcumin) [%] | reduction in K. brevis (best mitigation results) ([1]; 20-40 mg/L curcumin, T2-T6) | minimum concentration of curcumin for a reduction in K. brevis ([1]; laboratory studies) [mg/L] | effect on K. brevis cells [2]
1 | COc1cc(/C=C/C(=O)CC(=O)/C=C/c2ccc(O)c(OC)c2)ccc1O [curcumin, (1E,6E)-1,7-Bis (4 (hydroxy-3-methoxyphenyl)-1,6-heptadiene-3,5-dione)] | > 90 | > 90 | 60-100% | 5 | 
2 | CCCCOC(=O)c1ccccc1C(=O)OCCCC [dibutyl phthalate] |  |  |  |  | inhibit cell growth, decrease cell abundance, reduce chlorophyll a, and cause oxidative stress
